Test results reported in publication PMC3516885 (Chembiochem : a European journal of chemical biology, 2012).
Positions of bridges follow the written chain, without caps; N, C: chain ends. Residues, ends and D or L forms follow the SMILES beside them.

Key:
[1] = Human serum stability assay; type: in vitro ADME; settings: for peptide remaining after 24 hours in human serum (in words): 0.9 mg/mL, buffered human serum, 37 deg. C; for remaining at 7 h, 0.9 mg/mL: male, human, human type-AB serum diluted 9:1 in phosphate-buffered saline
Grb2-SH2 = Grb2-SH2 (Homo sapiens, UniProt P62993); type: binding; settings: 5 nM pYVNV ligand, 0.91 μM Grb2-SH2
Sequence of Grb2-SH2 (P62993 60-152 limits assumed): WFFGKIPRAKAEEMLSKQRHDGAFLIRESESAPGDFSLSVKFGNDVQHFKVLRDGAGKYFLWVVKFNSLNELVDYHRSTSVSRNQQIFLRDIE

remaining at 7 h, 0.9 mg/mL [1] [%]	inhibition of Grb2-SH2 in the competition assay (in words) (Grb2-SH2)	Compound	peptide remaining after 24 hours in human serum (in words) [1]
< 30	little inhibitory activity	CSCC[C@@H]1NC(=O)CNC(=O)[C@H](C(C)C)NC(=O)[C@H](CC(N)=O)NC(=O)[C@@H]2CCCN2C(=O)[C@H](Cc2ccc(O)cc2)NC(=O)[C@H](CC(C)C)NC(=O)[C@H](CCC(=O)O)NC(=O)[C@@H](N)CSSC[C@@H](C(N)=O)NC(=O)[C@H](Cc2ccc(O)cc2)NC1=O [G1-Pro] (H-CELYPNVGMYC-NH2; disulfide 1-11; N-terminus and C-terminus assumed)	no detectable amounts of peptide remaining
< 30		CSCC[C@@H]1NC(=O)CNC(=O)[C@H](C(C)C)NC(=O)[C@H](CC(N)=O)NC(=O)[C@H](CCC(=O)O)NC(=O)[C@H](Cc2ccc(O)cc2)NC(=O)[C@H](CC(C)C)NC(=O)[C@H](CCC(=O)O)NC(=O)[C@@H](N)CSSC[C@@H](C(N)=O)NC(=O)[C@H](Cc2ccc(O)cc2)NC1=O [G1, reference compound] (H-CELYENVGMYC-NH2; disulfide 1-11; N-terminus and C-terminus assumed)	no detectable amounts of peptide remaining
